The conditions of series [1]: cited from earlier work.
The next series deals with Myeloperoxidase (MPO). As to the kind of experiment: Myeloperoxidase (MPO) assay, neutrophil activity in liver tissue. Further details: species or system Sprague Dawley (SD) rats. Particulars: liver tissue at conclusion of 2 h reperfusion with CO. On the procedure: Myeloperoxidase (MPO) assay. MPO is a naturally occurring constituent of neutrophils and is used as a marker for neutrophil infiltration. Frozen tissue samples were thawed and suspended in an iced solution of 0.5% hexadecyltrimethyl-ammonium (Sigma) and 50 mMol potassium phosphate buffer solution (Sigma) with pH adjusted to 5. Samples are homogenized for 30 sec, centrifuged at 15,000 rpm for 15 min at 4° C. 0.1 ml of the supernatant was then mixed in solution of hydrogen peroxide-sodium acetate and tetramethyl benzidine (Sigma). The change in absorbance at 460 run was measured with a Beckman DU spectrophotometer (Beckman Institute, Fullerton, Calif.). The quantity of enzyme degrading 1 μMol peroxide per minute at 25° C. per gram of tissue was defined as one unit of MPO activity.

The next series has as its system rat liver. Further details: species or system Sprague Dawley (SD) rats. The text has this: Animals. Male Sprague Dawley (SD) rats weighing between 300-350 g (Harlan Sprague Dawley, Indianapolis, Ind.) were used. Animals were fed standard rodent chow and water and libitum and cared according to guidelines approved by the American Association of Laboratory Animal Care.
Isolated perfusion liver apparatus. An isolated perfusion liver apparatus was used, as described in Amersi et al., supra, and Maulik et al., Circulation 94:398-406 (1996). In brief, syngeneic rat blood, obtained for each experiment from four donor animals, was diluted to a hematocrit of 15% with Krebs Ringer Bicarbonate Buffer (mM: NaCl 118, KH2POF 1, MgSO4 0.9, CaCl2 2.5, dextrose 11.1, and NaHCO2 25), and maintained at pH of 7.4. The perfusate was pumped from a heated reservoir that warmed the perfusate to 37° C. through silastic tubing oxygenator connected to a flow meter that measured portal vein blood flow (Cole Palmer Instruments, Chicago, Ill.). Portal pressure was kept constant via a pressure monometer connected to a T fitting in the portal vein canula. […] During the experiment, pH, temperature and oxygenation were kept constant.
Ex vivo cold ischemia model. SD rats underwent isoflourane anesthesia and systemic heparinization. […] The livers were then stored for 24 h at 4° C. in UW solution, followed by ex-vivo reperfusion for 1-2 h on an isolated perfusion liver apparatus. Portal vein blood flow, pressure, and bile production were recorded every 30 min. Blood samples were collected at 30 min intervals and serum glutamic oxaloacetic transaminase (sGOT) levels were measured using an autoanalyzer from ANTECH Diagnostics (Irvine, Calif.). At the conclusion of experiment, a portion of the liver was snap frozen for mRNA extraction/Western blot analyses; the remaining samples were fixed in formalin for H&E staining.
The role of CO—HO-1 pathway in hepatic I/R injury was studied in five major treatment groups (n=4.8 rats/group). In Group 1, the extent of I/R injury was contrasted between livers perfused ex-vivo with blood saturated with CO (300 parts per million [ppm]; 0.03% balanced air) vs. air alone (21% O2). As NO may enhance HO-1 expression (Brouard et al., supra), we then investigated a link between the two gaseous molecules in Group 2 livers, which were perfused with CO supplemented with 25 mM NG-nitro-L-arginine methyl ester hydrochloride (L-NAME; Sigma Chemicals, St. Louis, Mo.), an inducible NO inhibitor. […] To analyze as to whether exogenous CO can substitute for HO-1 in preventing I/R insult, Group 4 rats were treated 24 h prior to liver procurement with ZnPP)(1.5 mg/kg/i.p; Porphyrin Products, Logan Utah), an HO-1 inhibitor, followed by ex vivo perfusion with CO. […] Brouard et al., supra. Therefore, Group 5 rats were pre-treated 60 min before harvest with p38 MAPK inhibitor, SB203580, a pyridinyl imidazol (25 mg/kg orally; Sigma). In addition, prior to reperfursion with CO, SB203580 (20 μM) was added to the perfusate.

[2] abbreviates: 24 h cold storage, 2 h reperfusion, CO 300 ppm vs air alone.

Molecules are shown by their SMILES. Where two headings read alike, the source gives them in different places.

On to `ClCCl` [methylene chloride], for which, in series [1] (500 mg/kg MC per os), the HbCO generated entry was “around 10%” and the “half life of metabolism” value was “about 3 h”. For the same compound, in series [1] (500 mg/kg for 4 weeks, rats), the “toxicity on repeated administration” value was “did not induce major body weight, biochemical or histological changes”. Also, the “maximal COHb values in venous or aortic blood” value in series [1] (500 mg/kg orally) is 10 % COHb. For the same compound, the “portion of the compound converted into carbon monoxide” value in series [1] (rat, in vivo) was 50-80%.

In the series on Myeloperoxidase (MPO), `[C-]#[O+]` [CO, carbon monoxide] showed an MPO activity of 1.3±0.2 U/mg. The bile production result in the series on rat liver (setting [2]) is reported as “significantly more bile”. Further, the portal vein resistance result with rat liver (setting [2]) is given as “significantly decreased”. Moreover, the sGOT levels with rat liver (CO 300 ppm alone, 2 h reperfusion) is reported as 163±27 IU/L; with rat liver (CO 300 ppm, 1 h reperfusion), 79±14 IU/L.

The values above are taken from patent publication US20040143025A1, “Carbon monoxide generating compunds for treatment of vascular, inflammatory and immune disorders” (priority 2002, published 2004).
